Measured values reported in US8829029B2, “Dual modulators of 5HT2A and D3 receptors” (Hoffmann-La Roche Inc., priority 2008, dated 2014).

Legend:
[1] = target: human 5-HT2A serotonin receptor (Homo sapiens (Human), UniProt P28223); assay: Radioligand binding ([3H]-ketanserin) to cloned human 5-HT2A receptor expressed in HEK-293 EBNA cells; details: membranes of transfected HEK-293 EBNA cells, 1.1 nM [3H]-ketanserin, 1 h at RT
Method: The ability of the compounds to bind to the 5-HT2A, D3 and D2 receptors was determined using radioligand binding to cloned receptors selectively expressed in HEK-293 EBNA cells.
(§1) HEK-293 EBNA cells were transiently transfected with expression plasmids encoding for the human D2 or D3 dopamine- or for the human 5-HT2A serotonin receptor, respectively. The cells were harvested 48 h post-transfection, washed three times with cold PBS and stored at −80° C. prior to use. The pellet was suspended in cold 50 mM Tris-HCl buffer containing 10 mM EDTA (pH 7.4) and homogenized with a Polytron (Kinematica AG, Basel, Switzerland) for 20-30 sec at 12,000 rpm. After centrifugation at 48,000×g for 30 min at 4° C., the pellet was resuspended in cold 10 mM Tris-HCl buffer containing 0.1 mM EDTA (pH 7.4), homogenized, and centrifuged as above. This pellet was further resuspended in a smaller volume of ice cold 10 mM Tris-HCl buffer containing 0.1 mM EDTA (pH 7.4) and homogenized with a Polytron for 20-30 sec at 12,000 rpm. The protein content of this homogenate was determined with the Bio-Rad (Bradford) Protein Assay (Biorad Laboratories GmbH, München, Germany) according to the instructions of the manufacturer using gamma globulin as the standard. This homogenate was stored at −80° C. in aliquots and thawed immediately prior to use.
Aliquots of membrane preparations were thawed at RT, resuspended in assay buffer (D2, D3: 50 mM Tris-HCl, 120 mM NaCl, 5 mM MgCl2, 1 mM EDTA, 5 mM KCl, 1.5 mM CaCl2, pH=7.4; 5-HT2A: 50 mM Tris-HCl, 10 mM MgCl2, 1 mM EGTA, pH=7.4), homogenized with a Polytron for 20-30 sec at 12,000 rpm and adjusted to a final concentration of approximately 7.5 μg protein/well (D2, D3) and 15 μg protein/well (5-HT2A), respectively.
(§2) The binding affinity (Ki) of the compounds was determined using radioligand binding. Membranes were incubated in a total volume of 200 μl with a fixed concentration of radioligand (final concentration approximately 0.7 nM [^3H]-spiperone for D2, 0.5 nM [^3H]-spiperone for D3, and 1.1 nM [^3H]-ketanserin for 5-HT2A) and ten concentrations of test compound in ranging between 10 μM-0.1 nM for 1 h at RT. At the end of the incubation, the reaction mixtures were filtered on to unifilter 96-well white microplates with bonded GF/C filters (Packard BioScience, Zürich, Switzerland; preincubated for 1 h in 0.1% polyethylenimine (PEI) in assay buffer) with a Filtermate 196 harvester (Packard BioScience) and washed 3 times with cold assay buffer. The nonspecific binding was determined with equally composed reaction mixtures in the presence of 10 μM unlabelled spiperone. Per well 45 μl of Microscint 40 (Perkin Elmer, Schwerzenbach, Switzerland) was added, plates for sealed, shaken for 20 min and counted for 3 min on a Topcount Microplate Scintillation Counter (Canberra Packard SA, Zürich, Switzerland) with quenching correction.
(§3) The CPM value for each duplicate of a concentration of competing compound was averaged (y1), then the % specific binding was calculated according to the equation (((y1−non-specific)/(total binding−non-specific))×100). Graphs were plotted with the % specific binding using XLfit, a curve fitting program that iteratively plots the data using Levenburg Marquardt algorithm. The single site competition analysis equation used was y=A+((B−A)/(1+((x/C)^D))), where y is the % specific binding, A is the minimum y, B is the maximum y, C is the IC50, x is the log10 of the concentration of the competing compound and D is the slope of the curve (the Hill Coefficient). From these curves the IC50 (inhibition concentration at which 50% specific binding of the radioligand was displaced) and Hill coefficient were determined. The affinity constant (Ki) was calculated using the Cheng-Prusoff equation Ki=(IC50/1+([L]/Kd), where [L] is the concentration of radioligand and Kd is the dissociation constant of the radioligand at the receptor as determined by the saturation isotherm.

[2] = target: human D3 dopamine receptor (Homo sapiens (Human), UniProt P35462); assay: Radioligand binding ([3H]-spiperone) to cloned human D3 receptor expressed in HEK-293 EBNA cells; details: membranes of transfected HEK-293 EBNA cells, 0.5 nM [3H]-spiperone, 1 h at RT
Method: as §1, with “The pellet was suspended in cold 50 mM Tris-HCl buffer containing 10 mM EDTA (pH 7.4) and homogenized with a Polytron (Kinematica AG, Basel, Switzerland) for 20-30 sec at 12,000 rpm.” left out, “This pellet was further resuspended in a smaller volume of ice cold 10 mM Tris-HCl buffer containing 0.1 mM EDTA (pH 7.4) and homogenized with a Polytron for 20-30 sec at 12,000 rpm.” left out
as §2, §3

Sequence of human D3 dopamine receptor (P35462 whole entry): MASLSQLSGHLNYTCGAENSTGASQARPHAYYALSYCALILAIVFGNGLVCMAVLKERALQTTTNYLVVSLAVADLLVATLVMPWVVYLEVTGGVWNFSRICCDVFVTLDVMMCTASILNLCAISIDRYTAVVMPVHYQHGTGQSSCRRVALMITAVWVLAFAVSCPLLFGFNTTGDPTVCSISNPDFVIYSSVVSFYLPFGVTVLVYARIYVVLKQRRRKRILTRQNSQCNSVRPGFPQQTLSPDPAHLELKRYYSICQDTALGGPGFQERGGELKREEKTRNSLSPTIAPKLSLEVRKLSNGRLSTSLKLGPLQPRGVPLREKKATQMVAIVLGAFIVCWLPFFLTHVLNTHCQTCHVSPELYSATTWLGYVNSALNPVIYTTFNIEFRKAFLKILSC

CC1CN(c2ccc(C(=O)N[C@H]3CC[C@H](CCN4CCC(c5noc6cc(F)ccc56)CC4)CC3)cc2)CC(C)O1 (stereo partly drawn) [Example 22, 4-(2,6-Dimethyl-morpholin-4-yl)-N-trans (4-{2-[4-(6-fluoro-benzo[d]isoxazol-3-yl)-piperidin-1-yl]-ethyl}-cyclohexyl)-benzamide]
Ki [1]: 21.2 nM
Ki [2]: 137 nM

O=C(CC1OCCCO1)N[C@H]1CC[C@H](CCN2CCC(c3noc4cc(F)c(F)cc34)CC2)CC1 [Example 72, N-trans-(4-{2-[4-(5,6-Difluoro-benzo[d]isoxazol-3-yl)-piperidin-1-yl]-ethyl}-cyclohexyl)-2-[1,3]dioxan-2-yl-acetamide]
Ki [1]: 9.39 nM
Ki [2]: 13.5 nM

O=C(N[C@H]1CC[C@H](CCN2CCC(c3noc4cc(F)ccc34)CC2)CC1)c1cnc(N2CCOCC2)cn1 [Example 4B, 5-Morpholin-4-yl-pyrazine-2-carboxylic acid trans (4-{2-[4-(6-fluoro-benzo[d]isoxazol-3-yl)-piperidin-1-yl]-ethyl}-cyclohexyl)-amide]
Ki [1]: 3.81 nM
Ki [2]: 19.4 nM

O=C(Cc1ccc2c(c1)OCO2)N[C@H]1CC[C@H](CCN2CCC(c3noc4cc(F)ccc34)CC2)CC1 [Example 7, 2-Benzo[1,3]dioxo1-5-yl-N-trans (4-{2-[4-(6-fluoro-benzo[d]isoxazol-3-yl)-piperidin-1-yl]-ethyl}-cyclohexyl)-acetamide]
Ki [1]: 2.09 nM
Ki [2]: 4.02 nM

CC(=O)N[C@H]1CC[C@H](CCN2CCC(c3noc4cc(F)ccc34)CC2)CC1 [Example 1, 4N-trans(4-{2-[4-(6-Fluoro-benzo[d]isoxazol-3-yl)-piperidin-1-yl]-ethyl}-cyclohexyl)-acetamide]
Ki [1]: 2.22 nM
Ki [2]: 4.96 nM

Cc1ccn(CC(=O)N[C@H]2CC[C@H](CCN3CCC(c4noc5cc(F)ccc45)CC3)CC2)n1 [Example 16, N-trans (4-{2-[4-(6-Fluoro-benzo[d]isoxazol-3-yl)-piperidin-1-yl]-ethyl}-cyclohexyl)-2-(3-methyl-pyrazol-1-yl)-acetamide]
Ki [1]: 2.8 nM
Ki [2]: 27.6 nM

CC1CN(c2ccc(C(=O)N[C@H]3CC[C@H](CCN4CCC(c5noc6ccc(F)cc56)CC4)CC3)cc2)CC(C)O1 (stereo partly drawn) [Example 28, 4-(2,6-Dimethyl-morpholin-4-yl)-N-trans (4-{2-[4-(5-fluoro-benzo[d]isoxazol-3-yl)-piperidin-1-yl]-ethyl}-cyclohexyl)-benzamide]
Ki [1]: 99.1 nM
Ki [2]: 85.8 nM

CC(=O)N[C@H]1CC[C@H](CCN2CCC(c3noc4cc(C)ccc34)CC2)CC1 [Example 73, N-trans-(4-{2-[4-(6-Methyl-benzo[d]isoxazol-3-yl)-piperidin-1-yl]-ethyl}-cyclohexyl)-acetamide]
Ki [1]: 16.8 nM
Ki [2]: 9.28 nM

CO[C@H]1CC[C@H](CC(=O)N[C@H]2CC[C@H](CCN3CCC(c4noc5cc(Cl)ccc45)CC3)CC2)C1 [Example 41, N-trans (4-{2-[4-(6-Chloro-benzo[d]isoxazol-3-yl)-piperidin-1-yl]-ethyl}-cyclohexyl)-2-((1S,3S)-3-methoxy-cyclopentyl)-acetamide]
Ki [1]: 14 nM
Ki [2]: 10 nM

CC(=O)N[C@H]1CC[C@H](CCN2CCC(c3noc4ccc(F)cc34)CC2)CC1 [Example 24, N-trans(4-{2-[4-(5-Fluoro-benzo[d]isoxazol-3-yl)-piperidin-1-yl]-ethyl}-cyclohexyl)-acetamide]
Ki [1]: 46.9 nM
Ki [2]: 2.44 nM

O=C(N[C@H]1CC[C@H](CCN2CCC(c3noc4cc(F)ccc34)CC2)CC1)C1CCOCC1 [Example 2, Tetrahydro-pyran-4-carboxylic acid trans(4-{2-[4-(6-fluoro-benzo[d]isoxazol-3-yl)-piperidin-1-yl]-ethyl}-cyclohexyl)-amide]
Ki [1]: 1.74 nM
Ki [2]: 9.74 nM

O=C(CO)N[C@H]1CC[C@H](CCN2CCC(c3noc4cc(F)c(F)cc34)CC2)CC1 [Example 67, N-trans-(4-{2-[4-(5,6-Difluoro-benzo[d]isoxazol-3-yl)-piperidin-1-yl]-ethyl}-cyclohexyl)-2-hydroxy-acetamide]
Ki [1]: 11.8 nM
Ki [2]: 19.9 nM

CO[C@]1(C)CC[C@@H](CC(=O)N[C@H]2CC[C@H](CCN3CCC(c4noc5cc(Cl)ccc45)CC3)CC2)CC1 [Example 42A, N-trans(4-{2-[4-(6-Chloro-benzo[d]isoxazol-3-yl)-piperidin-1-yl]-ethyl}-cyclohexyl)-2-(4-trans-methoxy-4-methyl-cyclohexyl)-acetamide]
Ki [1]: 16 nM
Ki [2]: 6 nM

O=C(N[C@H]1CC[C@H](CCN2CCC(c3noc4cc(F)ccc34)CC2)CC1)C1COc2ccccc2O1 (stereo partly drawn) [Example 15, 2,3-Dihydro-benzo[1,4]dioxine-2-carboxylic acid trans (4-{2-[4-(6-fluoro-benzo[d]isoxazol-3-yl)-piperidin-1-yl]-ethyl}-cyclohexyl)-amide]
Ki [1]: 2.57 nM
Ki [2]: 12.7 nM

O=C(N[C@H]1CC[C@H](CCN2CCC(c3noc4ccc(F)cc34)CC2)CC1)c1ccc(N2CCCCC2)cc1 [Example 27, N-trans(4-{2-[4-(5-Fluoro-benzo[d]isoxazol-3-yl)-piperidin-1-yl]-ethyl}-cyclohexyl)-4-piperidin-1-yl-benzamide]
Ki [1]: 7 nM
Ki [2]: 7.7 nM

N-trans-(4-{2-[4-(6-Chloro-benzo[d]isoxazol-3-yl)-piperidin-1-yl]-ethyl}-cyclohexyl)-2-trans (4-methoxy-cyclohexyl)-acetamide [Example 35]
Ki [1]: 9.64 nM
Ki [2]: 11.6 nM

CC(=O)N[C@H]1CC[C@H](CCN2CCC(c3noc4cc(F)c(F)cc34)CC2)CC1 [Example 66, N-trans-(4-{2-[4-(5,6-Difluoro-benzo[d]isoxazol-3-yl)-piperidin-1-yl]-ethyl}-cyclohexyl)-acetamide]
Ki [1]: 17.7 nM
Ki [2]: 11.4 nM

O=C(CO)N[C@H]1CC[C@H](CCN2CCC(c3noc4cc(Cl)ccc34)CC2)CC1 [Example 55, N-trans-(4-{2-[4-(6-Chloro-benzo[d]isoxazol-3-yl)-piperidin-1-yl]-ethyl}-cyclohexyl)-2-hydroxy-acetamide]
Ki [1]: 15 nM
Ki [2]: 16.8 nM

CC(=O)N[C@H]1CC[C@H](CCN2CCC(c3noc4cc(Cl)ccc34)CC2)CC1 [Example 46, N-trans(4-{2-[4-(6-Chloro-benzo[d]isoxazol-3-yl)-piperidin-1-yl]-ethyl}-cyclohexyl)-acetamide]
Ki [1]: 23.7 nM
Ki [2]: 8.19 nM

O=C(CC1CC1)N[C@H]1CC[C@H](CCN2CCC(c3noc4cc(Cl)ccc34)CC2)CC1 [Example 54, N-trans-(4-{2-[4-(6-Chloro-benzo[d]isoxazol-3-yl)-piperidin-1-yl]-ethyl}-cyclohexyl)-2-cyclopropyl-acetamide]
Ki [1]: 13.1 nM
Ki [2]: 3.21 nM
